Data taken from PubChem BioAssay AID248 (DTP/NCI, 2004).
Values joined by “and” are separate entries in the source; they are usually repeats but may differ in a detail not shown here. Equal values may be shown once. Toxic doses and inconclusive results are not listed. Rule as the data show it: active = T/C of 150% or more; inactive = T/C below 125%.

Tested on: L1210 leukemia ip in BDF1 mice, survival T/C
Assay: NCI In Vivo Anticancer Drug Screen. Data for tumor model L1210 Leukemia (intraperitoneal) in B6D2F1 (BDF1) mice
Details: endpoint: mean survival time, higher = longer survival
Outline: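 Mice bearing the transplanted tumor received compound or vehicle. Survival of the treated group was divided by that of the vehicle-treated control group to give the ratio.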

[1] = dose: 400.0 mg/kg/injection, schedule: Q01DX001 (ip), vehicle: saline
[2] = dose: 100.0 mg/kg/injection, schedule: Q04DX003 (ip), vehicle: saline with Tween-80
[3] = dose: 200.0 mg/kg/injection, schedule: Q04DX003 (ip), vehicle: saline with Tween-80
[4] = dose: 400.0 mg/kg/injection, schedule: Q04DX003 (ip), vehicle: saline with Tween-80
[5] = dose: 100.0 mg/kg/injection, schedule: Q04DX003 (ip), vehicle: Klucel (hydroxypropylcellulose) (HPC)
[6] = dose: 200.0 mg/kg/injection, schedule: Q04DX003 (ip), vehicle: Klucel (hydroxypropylcellulose) (HPC)
[7] = dose: 400.0 mg/kg/injection, schedule: Q04DX003 (ip), vehicle: Klucel (hydroxypropylcellulose) (HPC)

Measured: T/C

Cc1ccc(S(=O)(=O)Oc2ccccc2NS(=O)(=O)c2ccccc2)cc1
inactive: dose: 100.0 mg/kg/injection, schedule: Q01DX001 (ip), vehicle: saline 101 % of control | dose: 100.0 mg/kg/injection, schedule: Q04DX003 (ip), vehicle: acetone 96 % of control | dose: 200.0 mg/kg/injection, schedule: Q01DX001 (ip), vehicle: saline 95 % of control | dose: 200.0 mg/kg/injection, schedule: Q04DX003 (ip), vehicle: acetone 92 % of control | [1] 95 % of control | dose: 400.0 mg/kg/injection, schedule: Q04DX003 (ip), vehicle: acetone 87 % of control

CCNc1nncs1
active: dose: 75.0 mg/kg/injection, schedule: Q01DX Z (ip), vehicle: saline 170 % of control | dose: 150.0 mg/kg/injection, schedule: Q01DX Z (ip), vehicle: saline 176 % of control
inactive: dose: 7.0 mg/kg/injection, schedule: Q03HX032 (ip), vehicle: saline 97 % of control | dose: 11.0 mg/kg/injection, schedule: Q03HX032 (ip), vehicle: saline 104 % of control | dose: 16.0 mg/kg/injection, schedule: Q03HX032 (ip), vehicle: saline 105 % of control | dose: 17.25 mg/kg/injection, schedule: Q01DX Z (ip), vehicle: carboxymethylcellulose (CMC) 102 % of control | dose: 24.0 mg/kg/injection, schedule: Q03HX032 (ip), vehicle: saline 101 % of control | dose: 27.0 mg/kg/injection, schedule: Q01DX015 (ip), vehicle: saline 106 % of control | dose: 27.6 mg/kg/injection, schedule: Q01DX Z (ip), vehicle: carboxymethylcellulose (CMC) 100 % of control and 114 % of control | dose: 34.5 mg/kg/injection, schedule: Q01DX Z (ip), vehicle: carboxymethylcellulose (CMC) 98 % of control and 101 % of control | dose: 36.0 mg/kg/injection, schedule: Q03HX032 (ip), vehicle: saline 118 % of control | dose: 40.0 mg/kg/injection, schedule: Q01DX015 (ip), vehicle: saline 103 % of control | dose: 46.0 mg/kg/injection, schedule: Q01DX Z (ip), vehicle: carboxymethylcellulose (CMC) 100 % of control and 107 % of control | dose: 60.0 mg/kg/injection, schedule: Q01DX015 (ip), vehicle: saline 108 % of control | dose: 64.0 mg/kg/injection, schedule: Q02DX010 (ip), vehicle: carboxymethylcellulose (CMC) 117 % of control | dose: 96.0 mg/kg/injection, schedule: Q02DX010 (ip), vehicle: carboxymethylcellulose (CMC) 123 % of control | dose: 103.5 mg/kg/injection, schedule: Q01DX Z (ip), vehicle: carboxymethylcellulose (CMC) 123 % of control | dose: 138.0 mg/kg/injection, schedule: Q01DX Z (ip), vehicle: carboxymethylcellulose (CMC) 112 % of control | dose: 150.0 mg/kg/injection, schedule: Q01DX Z (oral), vehicle: saline 115 % of control | dose: 265.0 mg/kg/injection, schedule: Q01DX001 (ip), vehicle: saline 104 % of control | dose: 270.0 mg/kg/injection, schedule: Q01DX001 (ip), vehicle: saline 106 % of control | dose: 300.0 mg/kg/injection, schedule: Q01DX Z (oral), vehicle: saline 98 % of control | dose: 337.0 mg/kg/injection, schedule: Q02DX010 (ip), vehicle: carboxymethylcellulose (CMC) 120 % of control | [1] 109 % of control | dose: 562.0 mg/kg/injection, schedule: Q02DX010 (ip), vehicle: carboxymethylcellulose (CMC) 112 % of control and 76 % of control | dose: 562.5 mg/kg/injection, schedule: Q02DX010 (ip), vehicle: carboxymethylcellulose (CMC) 84 % of control and 88 % of control | dose: 600.0 mg/kg/injection, schedule: Q01DX001 (ip), vehicle: saline 117 % of control | dose: 600.0 mg/kg/injection, schedule: Q01DX Z (oral), vehicle: saline 87 % of control

c1cc[n+](CCNCC[n+]2ccccc2)cc1
inactive: dose: 75.0 mg/kg/injection, schedule: Q01DX001 (ip), vehicle: saline 93 % of control | dose: 150.0 mg/kg/injection, schedule: Q01DX001 (ip), vehicle: saline 94 % of control

CC(C(=O)O)C(C)(O)C(C)(C)C (stereo not drawn)
inactive: dose: 100.0 mg/kg/injection, schedule: Q04DX002 (ip), vehicle: saline 104 % of control | dose: 200.0 mg/kg/injection, schedule: Q04DX002 (ip), vehicle: saline 97 % of control | dose: 400.0 mg/kg/injection, schedule: Q04DX002 (ip), vehicle: saline 108 % of control

COC1OC(COS(C)(=O)=O)C(OS(C)(=O)=O)C(OS(C)(=O)=O)C1OS(C)(=O)=O (stereo not drawn)
inactive: [2] 91 % of control and 100 % of control | [3] 93 % of control and 91 % of control | [4] 88 % of control and 94 % of control

CC(C)CC(NC(=O)OC(C)(C)C)C(=O)O (stereo not drawn)
inactive: dose: 100.0 mg/kg/injection, schedule: Q01DX001 (ip), vehicle: other 104 % of control | dose: 200.0 mg/kg/injection, schedule: Q01DX001 (ip), vehicle: other 93 % of control | dose: 400.0 mg/kg/injection, schedule: Q01DX001 (ip), vehicle: other 98 % of control

CC1(CCc2ccc(N)cc2)NC(=O)NC1=O (stereo not drawn)
inactive: [5] 110 % of control | [6] 96 % of control | [7] 93 % of control

CC(C)(C)NNC(=O)c1ccccc1
inactive: dose: 75.0 mg/kg/injection, schedule: Q04DX003 (ip), vehicle: saline with Tween-80 106 % of control

Cc1ccc(Cl)cc1NC(=O)Nc1cccc2c(O)cccc12
inactive: dose: 100.0 mg/kg/injection, schedule: Q01DX001 (ip), vehicle: saline with Tween-80 100 % of control | dose: 100.0 mg/kg/injection, schedule: Q01DX009 (ip), vehicle: saline with Tween-80 90 % of control and 92 % of control | dose: 100.0 mg/kg/injection, schedule: Q04DX002 (ip), vehicle: saline with Tween-80 94 % of control and 87 % of control | [2] 88 % of control | dose: 200.0 mg/kg/injection, schedule: Q01DX001 (ip), vehicle: saline with Tween-80 89 % of control | dose: 200.0 mg/kg/injection, schedule: Q01DX009 (ip), vehicle: saline with Tween-80 103 % of control and 90 % of control | dose: 200.0 mg/kg/injection, schedule: Q04DX002 (ip), vehicle: saline with Tween-80 97 % of control and 89 % of control | [3] 98 % of control | dose: 400.0 mg/kg/injection, schedule: Q01DX001 (ip), vehicle: saline with Tween-80 98 % of control | dose: 400.0 mg/kg/injection, schedule: Q01DX009 (ip), vehicle: saline with Tween-80 95 % of control | dose: 400.0 mg/kg/injection, schedule: Q04DX002 (ip), vehicle: saline with Tween-80 94 % of control and 95 % of control | [4] 101 % of control

Cc1cc(NC(=O)c2ccc(C(=O)Nc3ccc(C4=NCCN4)c(C)c3)cc2)ccc1C1=NCCN1
inactive: dose: 48.0 mg/kg/injection, schedule: Q01DX Z (ip), vehicle: carboxymethylcellulose (CMC) 109 % of control | dose: 72.0 mg/kg/injection, schedule: Q01DX Z (ip), vehicle: carboxymethylcellulose (CMC) 122 % of control | dose: 100.0 mg/kg/injection, schedule: Q01DX Z (oral), vehicle: water 92 % of control | dose: 200.0 mg/kg/injection, schedule: Q01DX Z (oral), vehicle: water 107 % of control | dose: 250.0 mg/kg/injection, schedule: Q01DX Z (ip), vehicle: carboxymethylcellulose (CMC) 108 % of control and 112 % of control | dose: 375.0 mg/kg/injection, schedule: Q01DX Z (ip), vehicle: carboxymethylcellulose (CMC) 92 % of control | dose: 400.0 mg/kg/injection, schedule: Q01DX Z (oral), vehicle: water 92 % of control | dose: 800.0 mg/kg/injection, schedule: Q01DX Z (oral), vehicle: water 102 % of control
active: dose: 110.0 mg/kg/injection, schedule: Q01DX Z (ip), vehicle: carboxymethylcellulose (CMC) 150 % of control and 277 % of control | dose: 168.0 mg/kg/injection, schedule: Q01DX Z (ip), vehicle: carboxymethylcellulose (CMC) 164 % of control

CCOC(=O)C1(Cl)OC(Cl)(Cl)C(Cl)C1Cl (stereo not drawn)
inactive: dose: 10.0 mg/kg/injection, schedule: Q01DX001 (ip), vehicle: saline 92 % of control | dose: 20.0 mg/kg/injection, schedule: Q01DX001 (ip), vehicle: saline 90 % of control | dose: 40.0 mg/kg/injection, schedule: Q01DX001 (ip), vehicle: saline 103 % of control | dose: 80.0 mg/kg/injection, schedule: Q01DX001 (ip), vehicle: saline 90 % of control

CC(=O)NNc1ccc([N+](=O)[O-])cc1
inactive: [5] 89 % of control | [6] 94 % of control | [7] 89 % of control
